Holding throughout (format): cell-based
Data set [1] concerns MB cells. Kind of data set: FACS analysis of cell cycle progression. Conditions: vs miR-NC or scramble-siRNA. As to the method: (§1) To gain more insight into the tumor-suppressing and VCR-sensitizing activities of miR-584-5p, it was determined how the miR-584-5p mimic affected cell cycle progression of MB cells. […] Bar graphs show DNA histograms quantified using the FlowJo software. In FIG. 9A, the p-values were determined by two-way ANOVA followed by Tukey's multiple-comparisons test. Error bars represent mean±SEM. […] In FIG. 9B, the p-values were calculated using standard Student t-tests. Error bars represent mean±SEM. […] Next, it was determined whether miR-584-5p's effect on cell cycle progression may be mediated via its target genes eIF4E3/HDAC1. […] Bar graphs show dot plots quantified using the FlowJo software. Next, it was tested whether miR-584-5p-induced cell cycle arrest led to apoptosis of MB cells. […] In FIG. 8C, the bar graphs reflect DNA histograms quantified using the FlowJo software and in FIG. 8D and FIG. 9C, the bar graphs show dot plots quantified using the FlowJo software. The p-values for panels 8A-D and FIG. 9C were determined by two-way ANOVA followed by Tukey's multiple-comparisons test. Error bars represent mean±SEM. ****, p<0.0001; ***, p<0.001; **, p<0.01; *, p<0.05.
(§2) Flow cytometry analysis of cell cycle and apoptosis. […] Cells were analyzed using either FACScantoII or LSRII cytometers, and data were quantified using FlowJo 10.2 software.
Background: In flow cytometry, cells or beads pass a laser one at a time.

The test system of data set [2] is MB cells. Nature of the data set: Annexin V-FITC FACS analysis of apoptosis. As to conditions: Annexin V staining. The protocol:
as §1, §2

Data set [3] has as its system MB cells. Kind of data set: Immunofluorescence count of mitotic cells. As to conditions: vs scrambled-transfected cells. As to the method:
as §1
(§3) Immunofluorescence and Western blot analysis Immunofluorescence analyses was carried out on cells fixed in 4% paraformaldehyde (Imam, J. S. et al. PLoS One 7, e52397, (2012)). […]

Data set [4] concerns MB cells. Nature of the data set: Immunofluorescence of mitotic spindles / mitotic catastrophe. The protocol: DNA is stained with DAPI (blue), whereas spindle is stained with β-tubulin (red) (below).
as §3
VCR disrupts the integrity of the mitotic spindle and destabilizes microtubules (George, P., Journey, L. J. & Goldstein, M. N. J Natl Cancer Inst 35, 355-375 (1965)). […] In FIG. 12A, the p-values were calculated using standard Student t-tests. […] The p-values were calculated using standard Student t-tests. […] In FIG. 11F, the p-values were calculated using standard Student t-tests. […] In FIG. 11H, The p-values were calculated using standard Student t-tests. […] Quantitative real-time PCR. […]

In the case of “miR-584-5p: microRNA mimic; nucleotide sequence UUAUGGUUUGCCUGGGACUGAG (SEQ ID NO: 1); purchased from Thermofisher (chemistry not given here)”, in the data set with MB cells [1], the cell cycle progression entry is “G2/M cell cycle arrest”. Further, the “apoptosis of MB cells” value with MB cells [2] is recorded as “increased apoptosis”. Moreover, in the data set on MB cells [3], the mitotic cells result was “significantly more mitotic cells”. Moreover, in the data set on MB cells [4] (miR-584-5p-overexpressing MB cells), the mitotic catastrophe features result is “many cells with multipolar metaphase/anaphase, spindles with unorganized poles, micronuclei, and aneuploidy”. Besides, in the data set on MB cells [4] (β-tubulin/DAPI staining), the mitotic spindle defects entry is reported as “variety of mitotic spindle defects”.
